Experimental data taken from PubChem BioAssay (NCI).
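In this assay, cells in 96-well plates receive the compound at five concentrations for 48 hours. Endpoints are linearly interpolated between the surrounding concentrations. GI50 marks 50% less growth. TGI: concentration producing complete growth inhibition.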

Legend:
Assay in all cases: NCI-60 cell line screen, 48 h
NCI-H522 lung = tested on: NCI-H522 lung
MDA-MB-231 breast = tested on: MDA-MB-231 breast
LOX IMVI melanoma = tested on: LOX IMVI melanoma
SF-295 CNS = tested on: SF-295 CNS
BT-549 breast = tested on: BT-549 breast
HT29 colon = tested on: HT29 colon
K-562 leukemia = tested on: K-562 leukemia
HOP-92 NSCLC = tested on: HOP-92 NSCLC
PC-3 prostate = tested on: PC-3 prostate
SK-MEL-2 melanoma = tested on: SK-MEL-2 melanoma
HCT-116 colon = tested on: HCT-116 colon
TK-10 renal = tested on: TK-10 renal
M14 melanoma = tested on: M14 melanoma
UACC-257 melanoma = tested on: UACC-257 melanoma
RPMI-8226 leukemia = tested on: RPMI-8226 leukemia
OVCAR-4 ovarian = tested on: OVCAR-4 ovarian
NCI/ADR-RES ovarian = tested on: NCI/ADR-RES ovarian
KM12 colon = tested on: KM12 colon
OVCAR-5 ovarian = tested on: OVCAR-5 ovarian
U251 CNS = tested on: U251 CNS
IGROV1 ovarian = tested on: IGROV1 ovarian
EKVX NSCLC = tested on: EKVX NSCLC
HOP-62 NSCLC = tested on: HOP-62 NSCLC
SK-OV-3 ovarian = tested on: SK-OV-3 ovarian
HS 578T breast = tested on: HS 578T breast
OVCAR-8 ovarian = tested on: OVCAR-8 ovarian
UO-31 renal = tested on: UO-31 renal
T-47D breast = tested on: T-47D breast
A549 NSCLC = tested on: A549 NSCLC
SNB-19 CNS = tested on: SNB-19 CNS
ACHN renal = tested on: ACHN renal
CAKI-1 renal = tested on: CAKI-1 renal
OVCAR-3 ovarian = tested on: OVCAR-3 ovarian
CCRF-CEM leukemia = tested on: CCRF-CEM leukemia
DU-145 prostate = tested on: DU-145 prostate
HCT-15 colon = tested on: HCT-15 colon
SNB-75 CNS = tested on: SNB-75 CNS
MCF7 breast = tested on: MCF7 breast
SN12C renal = tested on: SN12C renal
SK-MEL-5 melanoma = tested on: SK-MEL-5 melanoma
UACC-62 melanoma = tested on: UACC-62 melanoma
SF-268 CNS = tested on: SF-268 CNS
COLO 205 colon = tested on: COLO 205 colon
NCI-H23 lung = tested on: NCI-H23 lung
MDA-MB-435 = tested on: MDA-MB-435
786-0 renal = tested on: 786-0 renal
SK-MEL-28 melanoma = tested on: SK-MEL-28 melanoma
MOLT-4 leukemia = tested on: MOLT-4 leukemia
HCC-2998 colon = tested on: HCC-2998 colon
SW-620 colon = tested on: SW-620 colon
RXF 393 renal = tested on: RXF 393 renal
NCI-H460 lung = tested on: NCI-H460 lung
SF-539 CNS = tested on: SF-539 CNS

SMILES: C=CCC(NCc1ccccc1)c1cn(C(=O)OCC)c2ccccc12 (stereo unspecified)
- GI50 (NCI-H522 lung): 19.8 µM
- TGI (NCI-H522 lung): 42.6 µM
- GI50 (MDA-MB-231 breast): 18.2 µM
- TGI (MDA-MB-231 breast): 44.1 µM
- GI50 (LOX IMVI melanoma): 17 µM
- TGI (LOX IMVI melanoma): 30.9 µM
- GI50 (SF-295 CNS): 21.7 µM
- TGI (SF-295 CNS): 47.4 µM
- GI50 (BT-549 breast): 21.3 µM
- TGI (BT-549 breast): 46.9 µM
- GI50 (HT29 colon): 29.6 µM
- TGI (HT29 colon): > 100 µM
- GI50 (K-562 leukemia): 2.37 µM
- TGI (K-562 leukemia): 15 µM
- GI50 (HOP-92 NSCLC): 13.8 µM
- TGI (HOP-92 NSCLC): 40.7 µM
- GI50 (PC-3 prostate): 22.9 µM
- TGI (PC-3 prostate): 96.4 µM
- GI50 (SK-MEL-2 melanoma): 33.1 µM
- TGI (SK-MEL-2 melanoma): > 100 µM
- GI50 (HCT-116 colon): 13 µM
- TGI (HCT-116 colon): 25.7 µM
- GI50 (TK-10 renal): 16.5 µM
- TGI (TK-10 renal): 36.6 µM
- GI50 (M14 melanoma): 18.6 µM
- TGI (M14 melanoma): 39.2 µM
- GI50 (UACC-257 melanoma): 23.8 µM
- TGI (UACC-257 melanoma): 49.5 µM
- GI50 (RPMI-8226 leukemia): 13.1 µM
- TGI (RPMI-8226 leukemia): 35.8 µM
- GI50 (OVCAR-4 ovarian): 51.5 µM
- TGI (OVCAR-4 ovarian): > 100 µM
- GI50 (NCI/ADR-RES ovarian): 21.4 µM
- TGI (NCI/ADR-RES ovarian): 52.1 µM
- GI50 (KM12 colon): 28.4 µM
- TGI (KM12 colon): > 100 µM
- GI50 (OVCAR-5 ovarian): 16 µM
- TGI (OVCAR-5 ovarian): 44.6 µM
- GI50 (U251 CNS): 19.2 µM
- TGI (U251 CNS): 39.3 µM
- GI50 (IGROV1 ovarian): 18.5 µM
- TGI (IGROV1 ovarian): 71.7 µM
- GI50 (EKVX NSCLC): 20.7 µM
- TGI (EKVX NSCLC): 55.4 µM
- GI50 (HOP-62 NSCLC): 24.6 µM
- TGI (HOP-62 NSCLC): 64.6 µM
- GI50 (SK-OV-3 ovarian): 44.7 µM
- TGI (SK-OV-3 ovarian): > 100 µM
- GI50 (HS 578T breast): 20 µM
- TGI (HS 578T breast): 63.8 µM
- GI50 (OVCAR-8 ovarian): 24.1 µM
- TGI (OVCAR-8 ovarian): 61.1 µM
- GI50 (UO-31 renal): 30.4 µM
- TGI (UO-31 renal): > 100 µM
- GI50 (T-47D breast): 33.3 µM
- TGI (T-47D breast): > 100 µM
- GI50 (A549 NSCLC): 31.5 µM
- TGI (A549 NSCLC): > 100 µM
- GI50 (SNB-19 CNS): 64.3 µM
- TGI (SNB-19 CNS): > 100 µM
- GI50 (ACHN renal): 18.5 µM
- TGI (ACHN renal): 36.5 µM
- GI50 (CAKI-1 renal): 18.5 µM
- TGI (CAKI-1 renal): 41.6 µM
- GI50 (OVCAR-3 ovarian): 17.3 µM
- TGI (OVCAR-3 ovarian): 33.7 µM
- GI50 (CCRF-CEM leukemia): 19.4 µM
- TGI (CCRF-CEM leukemia): 42.1 µM
- GI50 (DU-145 prostate): 20.8 µM
- TGI (DU-145 prostate): 60.7 µM
- GI50 (HCT-15 colon): 20.9 µM
- TGI (HCT-15 colon): 55 µM
- GI50 (SNB-75 CNS): 43.1 µM
- TGI (SNB-75 CNS): > 100 µM
- GI50 (MCF7 breast): 51.8 µM
- TGI (MCF7 breast): > 100 µM
- GI50 (SN12C renal): 25.7 µM
- TGI (SN12C renal): 60.9 µM
- GI50 (SK-MEL-5 melanoma): 13.9 µM
- TGI (SK-MEL-5 melanoma): 28 µM
- GI50 (UACC-62 melanoma): 22.6 µM
- TGI (UACC-62 melanoma): 50.6 µM
- GI50 (SF-268 CNS): > 100 µM
- TGI (SF-268 CNS): > 100 µM
- GI50 (COLO 205 colon): 28 µM
- TGI (COLO 205 colon): > 100 µM
- GI50 (NCI-H23 lung): 17.7 µM
- TGI (NCI-H23 lung): 43.6 µM
- GI50 (MDA-MB-435): 20.2 µM
- TGI (MDA-MB-435): 45.9 µM
- GI50 (786-0 renal): 18.7 µM
- TGI (786-0 renal): 38.8 µM
- GI50 (SK-MEL-28 melanoma): 41.5 µM
- TGI (SK-MEL-28 melanoma): > 100 µM
- GI50 (MOLT-4 leukemia): 10 µM
- TGI (MOLT-4 leukemia): 38.1 µM
- GI50 (HCC-2998 colon): 14 µM
- TGI (HCC-2998 colon): 28.3 µM
- GI50 (SW-620 colon): 18.3 µM
- TGI (SW-620 colon): 41.7 µM
- GI50 (RXF 393 renal): 19 µM
- TGI (RXF 393 renal): 46.5 µM
- GI50 (NCI-H460 lung): > 100 µM
- TGI (NCI-H460 lung): > 100 µM
- GI50 (SF-539 CNS): 5.47 µM
- TGI (SF-539 CNS): 18.8 µM
